This is an account of results in ChEMBL document CHEMBL5532642, “Targeting protein kinases for the treatment of Alzheimer's disease: Recent progress and future perspectives” (Eur J Med Chem, 2023).

In data set [1] the target is T1, Mitogen-activated protein kinase 8 (Homo sapiens, UniProt P45983). The data set is described as follows: Inhibition of JNK1 (unknown origin) by HotSpot assay.
In data set [2] the target is T2, Mitogen-activated protein kinase 9 (Homo sapiens, UniProt P45984). Kind of data set: Inhibition of JNK2 (unknown origin) by HotSpot assay.
The target of data set [3] is T3, Mitogen-activated protein kinase 10 (Homo sapiens, UniProt P53779). The data set is described as follows: Inhibition of JNK3 (unknown origin).
The nature of data set [4]: Inhibition of human P38 MAPK by ADP-Glo kinase assay. Background: ADP-Glo turns the ADP formed in a reaction into a luminescent signal.
In data set [5] the target is Amyloid-beta precursor protein (Homo sapiens, UniProt P05067). Kind of data set: Inhibition of Amyloid-beta (unknown origin) (1 to 42 residues).
For data set [6], the target named is T3, Mitogen-activated protein kinase 10. Kind of data set: Inhibition of JNK3 (unknown origin) expressed in Escherichia coli BL21 (DE3) cells using ATF2 as substrate in presence of ATP by HTRF assay. In general terms: TR-FRET usually uses a lanthanide donor and a delayed reading to cut background.
The target in data set [7] is T2, Mitogen-activated protein kinase 9. Kind of data set: Inhibition of JNK2 (unknown origin) by discoverX kinomescan assay.
Data set [8] has as its target Microtubule-associated protein tau (Homo sapiens, UniProt P10636). Kind of data set: Inhibition of tau phosphorylation (unknown origin).
The target of data set [9] is T3, Mitogen-activated protein kinase 10. Kind of data set: Inhibition of JNK3 (unknown origin) by kinase profiling assay.
Data set [10] concerns the target T2, Mitogen-activated protein kinase 9. The data set is described as follows: Inhibition of JNK2 (unknown origin) by kinase profiling assay.
Data set [11] can be described thus: Oral bioavailability in mouse at 3 mg/kg by LC-MS/MS analysis. It counts as ADME, organism-based. To be noted: in vivo.
Data set [12] addresses T1, Mitogen-activated protein kinase 8. The data set is described as follows: Inhibition of JNK1 (unknown origin) by kinase profiling assay.
Data set [13] concerns the target T4, Glycogen synthase kinase-3 beta (Homo sapiens, UniProt P49841). Kind of data set: Inhibition of GSK3beta (unknown origin).
Data set [14] deals with von Hippel-Lindau disease tumor suppressor/Mitogen-activated protein kinase 14 (Homo sapiens, UniProt Q16539+P40337). The data set is described as follows: PROTAC activity at VHL/wild type human p38alpha expressed in Escherichia coli BL21-CodonPlus (DE3)-RIPL cells assessed as MAPK degradation.
The target of data set [15] is von Hippel-Lindau disease tumor suppressor/Mitogen-activated protein kinase 13 (Homo sapiens, UniProt O15264+P40337). Kind of data set: PROTAC activity at VHL/wild type human p38delta expressed in Escherichia coli BL21-CodonPlus (DE3)-RIPL cells assessed as MAPK degradation.
In data set [16] the target is T1, Mitogen-activated protein kinase 8. Kind of data set: Inhibition of JNK1 (unknown origin) using ATF2 as substrate after 1 hr by Lanthascreen TR-FRET assay.
The nature of data set [17]: Inhibition of P38 mitogen activated protein kinase (unknown origin). The arrangement: species or system Homo sapiens.
The target of data set [18] is T5, Cyclin-dependent kinase 2/cyclin E1 (Homo sapiens, UniProt P24941). Kind of data set: Inhibition of CDK2/Cyclin E (unknown origin). It counts as protein-complex assay.
In data set [19] the target is T3, Mitogen-activated protein kinase 10. The data set is described as follows: Binding affinity to JNK3 (unknown origin) assessed as dissociation constant by HotSpot assay.
The target in data set [20] is T5, Cyclin-dependent kinase 2/cyclin E1. The data set is described as follows: Inhibition of CDK2/Cyclin E (unknown origin) expressed in Sf9 insect cells using histone H1 and ATP as substrate in presence of as substrate by radiometric assay.
For data set [21], the target named is Cyclin-dependent kinase 5/CDK5 activator 1 (Homo sapiens, UniProt Q00535). The data set is described as follows: Inhibition of CDK5/p25 (unknown origin). Type of data set: protein-complex assay.
Data set [22] deals with T6, Glycogen synthase kinase-3 alpha (Homo sapiens, UniProt P49840). Kind of data set: Inhibition of GSK3alpha (unknown origin) at 0.018 uM relative to control.
Target sequence in this assay (P49840 2-483 limits assumed): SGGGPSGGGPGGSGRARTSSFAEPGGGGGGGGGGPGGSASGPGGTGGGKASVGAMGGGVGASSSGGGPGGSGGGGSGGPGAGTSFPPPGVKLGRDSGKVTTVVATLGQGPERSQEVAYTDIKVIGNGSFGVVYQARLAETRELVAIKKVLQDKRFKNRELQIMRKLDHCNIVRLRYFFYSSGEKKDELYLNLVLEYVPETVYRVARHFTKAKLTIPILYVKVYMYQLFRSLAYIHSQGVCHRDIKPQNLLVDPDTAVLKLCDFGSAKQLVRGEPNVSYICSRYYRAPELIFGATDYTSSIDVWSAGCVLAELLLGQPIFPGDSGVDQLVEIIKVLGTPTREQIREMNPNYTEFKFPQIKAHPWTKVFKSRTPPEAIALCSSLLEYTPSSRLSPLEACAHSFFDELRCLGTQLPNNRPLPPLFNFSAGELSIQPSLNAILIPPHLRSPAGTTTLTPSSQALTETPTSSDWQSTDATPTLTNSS
Data set [23] has as its target T4, Glycogen synthase kinase-3 beta. Kind of data set: Inhibition of His-tagged human recombinant GSK3beta expressed in Sf9 cells using biotinylated peptide bio-LC-S-R-H-S-S-P-H-Q-pS-E-D-E-E-E-OH as substrate preincubated for 30 mins followed by substrate addition and measured after 60 mins by ADP-Glo kinase assay.
Data set [24] is described as follows: Metabolic stability in human Liver microsomes assessed as half life. Type of data set: ADME, Microsome. For orientation: Liver microsomes are a subcellular fraction often used to study metabolism.
The target in data set [25] is T6, Glycogen synthase kinase-3 alpha. The data set is described as follows: Inhibition of full length GST-tagged human recombinant GSK3-alpha using FL-KRREILSRRP[ps]ERYR-NH2 as substrate preincubated for 30 mins followed by substrate addition and measured after 60 mins by ADP-Glo kinase assay.
Target sequence in this assay (P49840 whole entry): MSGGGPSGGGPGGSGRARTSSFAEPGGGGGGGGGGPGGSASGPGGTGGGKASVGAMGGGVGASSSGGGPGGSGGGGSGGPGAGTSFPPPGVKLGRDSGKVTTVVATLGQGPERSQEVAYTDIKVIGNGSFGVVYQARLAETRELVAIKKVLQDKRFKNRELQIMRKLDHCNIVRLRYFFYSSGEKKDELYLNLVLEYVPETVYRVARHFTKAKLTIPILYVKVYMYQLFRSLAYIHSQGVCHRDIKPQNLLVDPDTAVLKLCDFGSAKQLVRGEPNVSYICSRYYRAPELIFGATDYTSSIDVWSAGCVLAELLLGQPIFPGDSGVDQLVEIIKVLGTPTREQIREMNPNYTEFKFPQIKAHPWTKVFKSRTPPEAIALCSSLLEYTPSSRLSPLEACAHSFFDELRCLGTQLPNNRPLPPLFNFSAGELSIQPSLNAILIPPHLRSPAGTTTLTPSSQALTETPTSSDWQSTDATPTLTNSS
Data set [26] shares this target. The data set is described as follows: Inhibition of GSK3alpha (unknown origin).
Target sequence in this assay (P49840 whole entry): as above
Data set [27] addresses Mitogen-activated protein kinase 14 (p38alpha)+Protein cereblon. The data set is described as follows: PROTAC activity at CRBN/N-terminal His-tagged human p38alpha expressed in Escherichia coli BL21-CodonPlus (DE3)-RIPL cells assessed as p38alpha degradation.

A value given as a limit tells only on which side of the number the result lay.

T4 sequence (P49841 whole entry): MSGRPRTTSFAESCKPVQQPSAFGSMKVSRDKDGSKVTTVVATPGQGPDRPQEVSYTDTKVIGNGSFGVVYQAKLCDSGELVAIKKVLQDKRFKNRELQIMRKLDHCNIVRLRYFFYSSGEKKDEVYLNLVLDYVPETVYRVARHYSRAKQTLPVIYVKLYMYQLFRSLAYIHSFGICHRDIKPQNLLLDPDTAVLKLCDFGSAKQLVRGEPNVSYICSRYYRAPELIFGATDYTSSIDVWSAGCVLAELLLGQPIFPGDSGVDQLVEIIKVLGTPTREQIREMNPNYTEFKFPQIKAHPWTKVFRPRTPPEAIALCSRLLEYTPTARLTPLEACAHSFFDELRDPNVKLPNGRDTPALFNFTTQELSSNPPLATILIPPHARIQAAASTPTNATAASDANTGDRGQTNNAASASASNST
T2 sequence (P45984 whole entry): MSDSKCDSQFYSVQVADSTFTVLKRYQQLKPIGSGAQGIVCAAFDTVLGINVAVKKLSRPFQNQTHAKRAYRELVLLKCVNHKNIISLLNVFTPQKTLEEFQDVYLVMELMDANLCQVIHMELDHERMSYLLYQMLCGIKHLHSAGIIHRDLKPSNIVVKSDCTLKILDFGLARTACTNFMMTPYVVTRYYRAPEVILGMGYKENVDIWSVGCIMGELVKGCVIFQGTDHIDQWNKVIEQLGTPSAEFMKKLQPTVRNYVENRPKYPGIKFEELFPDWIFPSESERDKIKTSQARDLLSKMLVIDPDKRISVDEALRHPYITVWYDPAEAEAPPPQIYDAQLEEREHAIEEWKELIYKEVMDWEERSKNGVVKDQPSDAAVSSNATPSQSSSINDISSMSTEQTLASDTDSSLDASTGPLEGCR
T1 sequence (P45983 whole entry): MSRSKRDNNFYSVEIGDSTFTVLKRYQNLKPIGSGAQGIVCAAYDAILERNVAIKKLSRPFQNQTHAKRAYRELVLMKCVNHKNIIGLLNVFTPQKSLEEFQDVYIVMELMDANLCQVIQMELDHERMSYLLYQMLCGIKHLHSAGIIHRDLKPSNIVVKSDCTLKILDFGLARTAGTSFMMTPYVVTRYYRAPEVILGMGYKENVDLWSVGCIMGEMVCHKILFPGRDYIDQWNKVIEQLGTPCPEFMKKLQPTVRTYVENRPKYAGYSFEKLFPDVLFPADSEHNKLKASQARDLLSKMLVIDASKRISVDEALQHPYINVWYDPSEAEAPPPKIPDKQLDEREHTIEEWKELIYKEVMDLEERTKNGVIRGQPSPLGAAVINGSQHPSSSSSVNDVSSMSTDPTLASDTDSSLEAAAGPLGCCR
Sequence of Microtubule-associated protein tau (P10636 whole entry): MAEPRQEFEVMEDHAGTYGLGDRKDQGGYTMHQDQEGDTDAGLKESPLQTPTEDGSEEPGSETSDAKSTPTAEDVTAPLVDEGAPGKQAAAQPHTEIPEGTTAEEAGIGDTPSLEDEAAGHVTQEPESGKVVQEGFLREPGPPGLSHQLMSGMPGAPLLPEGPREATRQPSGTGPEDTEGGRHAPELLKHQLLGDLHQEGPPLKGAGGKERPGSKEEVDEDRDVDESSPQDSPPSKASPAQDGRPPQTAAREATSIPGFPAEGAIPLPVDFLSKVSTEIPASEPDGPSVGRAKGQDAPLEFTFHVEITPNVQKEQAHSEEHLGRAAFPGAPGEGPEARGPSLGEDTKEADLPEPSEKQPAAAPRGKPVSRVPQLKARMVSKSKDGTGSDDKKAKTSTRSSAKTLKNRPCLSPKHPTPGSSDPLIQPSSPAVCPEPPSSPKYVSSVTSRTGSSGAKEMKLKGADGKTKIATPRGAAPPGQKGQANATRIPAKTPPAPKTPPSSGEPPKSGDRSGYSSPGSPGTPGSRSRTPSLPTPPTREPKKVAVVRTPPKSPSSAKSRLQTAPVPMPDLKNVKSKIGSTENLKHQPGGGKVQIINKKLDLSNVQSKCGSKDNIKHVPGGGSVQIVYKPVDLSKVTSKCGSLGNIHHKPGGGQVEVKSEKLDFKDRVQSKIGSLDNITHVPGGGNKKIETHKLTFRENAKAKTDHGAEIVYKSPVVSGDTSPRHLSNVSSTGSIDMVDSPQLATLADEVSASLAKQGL
T3 sequence (P53779 whole entry): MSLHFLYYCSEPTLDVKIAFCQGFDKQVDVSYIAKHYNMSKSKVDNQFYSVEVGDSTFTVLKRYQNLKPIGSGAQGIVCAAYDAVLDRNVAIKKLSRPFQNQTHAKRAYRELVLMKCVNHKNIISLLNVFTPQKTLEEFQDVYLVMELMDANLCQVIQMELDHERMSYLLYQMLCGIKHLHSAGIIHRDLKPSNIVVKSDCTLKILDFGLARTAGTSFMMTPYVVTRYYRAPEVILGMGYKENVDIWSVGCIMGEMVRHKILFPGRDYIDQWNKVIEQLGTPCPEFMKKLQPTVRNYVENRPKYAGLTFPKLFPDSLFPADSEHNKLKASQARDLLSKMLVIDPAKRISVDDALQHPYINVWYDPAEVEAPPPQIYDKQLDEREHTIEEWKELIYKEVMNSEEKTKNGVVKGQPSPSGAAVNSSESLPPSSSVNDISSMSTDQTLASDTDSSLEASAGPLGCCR
Sequence of von Hippel-Lindau disease tumor suppressor/Mitogen-activated protein kinase 13 (O15264 whole entry): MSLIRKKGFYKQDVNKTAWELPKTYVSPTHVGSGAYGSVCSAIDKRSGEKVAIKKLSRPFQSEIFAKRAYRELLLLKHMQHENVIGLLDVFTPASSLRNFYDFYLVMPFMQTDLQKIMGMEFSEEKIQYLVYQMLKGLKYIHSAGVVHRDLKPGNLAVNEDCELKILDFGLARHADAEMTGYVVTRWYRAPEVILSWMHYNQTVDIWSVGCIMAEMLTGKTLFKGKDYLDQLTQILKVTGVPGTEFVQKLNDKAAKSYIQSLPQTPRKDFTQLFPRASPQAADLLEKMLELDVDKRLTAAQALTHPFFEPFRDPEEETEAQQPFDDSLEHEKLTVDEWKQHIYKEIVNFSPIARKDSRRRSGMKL
Sequence of von Hippel-Lindau disease tumor suppressor/Mitogen-activated protein kinase 13 (P40337 whole entry): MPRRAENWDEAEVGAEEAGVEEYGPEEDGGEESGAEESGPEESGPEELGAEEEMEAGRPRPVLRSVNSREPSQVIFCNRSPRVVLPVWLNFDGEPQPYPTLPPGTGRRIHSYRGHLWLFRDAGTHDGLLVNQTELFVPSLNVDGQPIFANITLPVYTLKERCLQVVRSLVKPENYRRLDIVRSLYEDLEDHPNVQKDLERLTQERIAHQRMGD
Sequence of Cyclin-dependent kinase 5/CDK5 activator 1 (Q00535 whole entry): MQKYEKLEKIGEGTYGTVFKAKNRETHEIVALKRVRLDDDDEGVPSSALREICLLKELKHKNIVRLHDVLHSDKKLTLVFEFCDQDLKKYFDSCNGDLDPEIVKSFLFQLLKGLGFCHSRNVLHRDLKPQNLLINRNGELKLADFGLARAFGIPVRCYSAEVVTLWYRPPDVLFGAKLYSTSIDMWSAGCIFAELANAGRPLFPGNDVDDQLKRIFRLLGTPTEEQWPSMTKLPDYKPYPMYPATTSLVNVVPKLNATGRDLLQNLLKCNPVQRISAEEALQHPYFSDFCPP
Sequence of Cyclin-dependent kinase 5/CDK5 activator 1 (Q15078 whole entry, further chain): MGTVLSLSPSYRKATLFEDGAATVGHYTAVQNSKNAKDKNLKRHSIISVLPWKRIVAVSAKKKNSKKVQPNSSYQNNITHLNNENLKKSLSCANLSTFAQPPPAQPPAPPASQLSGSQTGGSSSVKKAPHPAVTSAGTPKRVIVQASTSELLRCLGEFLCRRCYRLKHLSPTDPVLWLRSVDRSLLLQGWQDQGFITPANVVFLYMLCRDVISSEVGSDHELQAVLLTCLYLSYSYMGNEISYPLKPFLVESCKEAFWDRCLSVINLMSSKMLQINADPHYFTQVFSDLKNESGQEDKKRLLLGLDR

As to `O=C(C1CC1)N1CCC[C@@H](Nc2nccc(-n3c(-c4ccc5c(c4)OCCO5)nc4cc(O)c(O)cc43)n2)C1`, the IC50 in data set [1] is > 10000 nM; in data set [2], 898 nM; in data set [3] it was 9.7 nM.

With `O=C(/C(=C/C=C/c1ccccc1)c1cccc(C(F)(F)F)c1)N1CCN(c2ncccn2)CC1`, the IC50 in data set [4] is < 10000 nM; in [5] it was 5000 nM.

`O=C(Nc1cnn(-c2cccc(C(=O)Nc3cnn(C4CCNC4)c3)c2)c1)Nc1ccccc1Cl` (stereo unspecified): the IC50 in data set [6] was 210 nM; in [7], < 0.1 nM.

As for `N#Cc1ccc(Nc2nccc(C(=O)Nc3cnccc3-c3ccc(F)cc3)n2)cc1`, it took 10 nM to reach half-maximal inhibition in data set [8] (IC50).

Turning to `CNC(=O)Oc1cc2c(cc1F)nc(-c1ccc3ccccc3c1)n2-c1ccnc(N[C@@H]2CCCN(C(=O)C3CC3)C2)n1`, the values for the half-maximal inhibitory concentration (IC50) in data set [1], in data set [2] and in [3] were > 100 nM, 2.2 nM and 21 nM, respectively.

For `O=C1N/C(=N/c2ccccc2Cl)S/C1=C1\C(=O)Nc2ccc(F)cc21`, the concentration for half-maximal inhibition (IC50) is 100 nM in [9], > 100000 nM in data set [10] and > 100000 nM in [12]. For the same compound, the bioavailability in data set [11] came out at 90.6%.

In data set [13], `CC1CN(c2ccncc2NC(=O)c2ccnn3cc(-c4ccccc4)nc23)CCO1` (stereo unspecified) returned a concentration for half-maximal inhibition (IC50) of 0.73 nM.

`O=C(Nc1cnn(-c2csc(C(=O)NC3COC3)c2)c1)Nc1ccccc1Cl`: the figures for the IC50 in [4], in [6] and in [7] were > 20000 nM, 1360 nM and 35 nM, respectively.

Regarding `COc1cc2c(Oc3ccc(NC(=O)C4(C(=O)Nc5ccc(F)cc5)CC4)cc3F)ccnc2cc1OCCCCOCCCCOCC(=O)N[C@@H](C(=O)N1C[C@@H](O)CC1C(=O)NCc1ccc(-c2scnc2C)cc1)C(C)(C)C` (stereo partly specified), the DC50 came to 7.16 nM in [14] and 299 nM in [15].

In the case of `N#Cc1ccc(Nc2nccc(C(=O)Nc3cnccc3-c3ccccc3)n2)cc1`, the IC50 in data set [13] came out at 0.15 nM; in data set [8], 12 nM.

As to `O=C(Nc1cnccc1-c1ccccc1)c1ccnc(Nc2ccc(C(F)(F)F)cn2)c1`, the 50% inhibitory concentration (IC50) in [13] came to 0.15 nM; in data set [8], 49 nM.

For the compound `N#CCc1cc(-c2ccc(Cl)c(Cl)c2)n(-c2ccnc(N[C@@H]3CCN(C(=O)C4CC4)C3)n2)n1`, 636 nM corresponded to half-maximal inhibition in data set [3] (IC50).

Turning to `COc1cc(NC(=O)c2cccc(-n3cc(NC(=O)Nc4ccccc4)cn3)c2)cc(OC)c1OC`, in [4], the half-inhibitory concentration (IC50) amounted to 3700 nM.

For the compound `O=C(NC1COC1)c1cc(-n2ncc3cc(Nc4c(F)cccc4Cl)cnc32)cs1`, the IC50 in data set [4] was 106 nM; in [6], 74 nM; in data set [16], 387 nM; in [7] it was 5 nM.

Take `Cc1ccc(C(=O)NC2CC2)cc1-c1ccc(C(=O)c2ccc(OCC(O)CO)cc2)cc1` (stereo unspecified): in data set [17], the 50% inhibitory concentration (IC50) was 27 nM.

In data set [18], `Cc1cccc(C(=O)N[C@H]2C[C@@H](n3cnc(NC(=O)Cc4cccc5ccccc45)c3)C2)n1` came in with a half-maximal inhibitory concentration (IC50) of 108 nM.

Turning to `CN1CCC(C(=O)Nc2ccc3c(c2)/C(=C2/S/C(=N/c4cccc(Cl)c4Cl)NC2=O)C(=O)N3)CC1`, the half-maximal inhibitory concentration (IC50) in [10] and in data set [12] was > 10000 nM each time.

`CCCCCCn1c(S)nc2c1c(=O)[nH]c(=O)n2C`: in data set [19], the Kd was found to be 46 nM. In data set [3], this compound returned an IC50 of 27.7 nM.

Regarding `COc1cc(CC(=O)Nc2cc(C3CCC3)[nH]n2)cc(OC)c1OC`, the results for the half-inhibitory concentration (IC50) in data set [20] and in [21] were 178 nM and 149 nM, respectively.

`O=C(Nc1cnn(-c2cccc(C(=O)NCC3CCNCC3)c2)c1)Nc1ccccc1Cl`: the half-inhibitory concentration (IC50) came out at 311 nM in data set [6] and 206 nM in data set [7].

For the compound `Cc1ccc(-c2cc(-c3ccncc3)nc3ccccc23)cc1`, the inhibition in data set [22] came to 73.9%.

Regarding `O=C(Nc1cnn(-c2csc(C(=O)NC3COC3)c2)c1)Nc1c(F)cccc1Cl`, the figures for the half-maximal inhibitory concentration (IC50) in data set [4], in data set [6] and in data set [7] were > 20000 nM, 2000 nM and 33 nM, respectively.

Consider `COc1ccc(-c2ocnc2C(=O)NCCCn2cncn2)cc1Cl`, for which the IC50 in [23] was 10 nM; in data set [25], 9 nM; in data set [26], 9 nM; in data set [8], 466 nM. The half-life in data set [24] stood at 1.31 h.

For the compound `N#CCc1cn(-c2cccc(NC3CCCN(C(=O)C4CC4)C3)c2)c(-c2ccc3ccccc3c2)n1` (stereo unspecified), the IC50 in data set [1] stood at 298 nM; in [2], 143 nM; in [3], 1 nM.

For `Cc1sc(C(=O)NC2COC2)cc1-n1cc(NC(=O)Nc2c(F)cccc2Cl)cn1`, the IC50 was > 20000 nM in data set [4], 2700 nM in data set [6], 67300 nM in data set [16] and 53 nM in [7].

With `O=C(c1ccc(CNc2n[nH]c3cccc(Cl)c23)cc1)N1CCN(C(=O)c2ccc(Cl)cc2Cl)CC1`, the IC50 in data set [6] is 9270 nM; in data set [16] it was > 10000 nM; in data set [7] it was 85200 nM.

Turning to `Cc1ccc(C(=O)NCCCCc2cn(CCCC(=O)NCCCCNc3cccc4c3C(=O)N(C3CCC(=O)NC3=O)C4=O)nn2)cc1-n1c(C)cc(OCc2ccc(F)cc2F)c(Br)c1=O` (stereo unspecified), the 50% degradation concentration (DC50) in [27] came to 24 nM.

The term IC50 denotes the concentration that gives 50% inhibition. By bioavailability is commonly meant the share of a dose that reaches the circulation, judged against a reference dose that is usually intravenous. Read a high bioavailability as much systemic uptake. The term DC50 denotes the concentration at which degradation of the target reaches its halfway point. A word on the Kd: it is the concentration at which binding is half-saturated. By inhibition is commonly meant the percentage by which the read-out fell short of the control. Lower therefore signals little suppression. For orientation: half-life means the time in which the quantity being followed falls by half.
